Assay [1] deals with pre-osteoclast RAW 264.7 cell culture. Kind of assay: TRAP+ cell staining for osteoclast activation with WP9QY-loaded cement. It counts as cell-based. The conditions noted are these: WP9QY released from MWCNT/CPC or CPC; 5 days; TNFalpha stimulated; FIG. 6. The text has this:
The MWCNT/CPC or CPC alone were loaded with WP9QY ([…], [SEQ ID NO: 1]), which is a peptide compound designed to compete ligand binding of RANK and to inhibit osteoclastogensis. The WP9QY peptide has a sequence of H-[…]OH [SEQ ID NO: 1], and was developed based on a structural analysis of the ligand binding site on TNF receptor 1 and RANK to inhibit osteoclast-activating. This cyclic peptide mimics the most critical tumor necrosis factor (TNF) recognition loop on TNF receptor 1, and prevents interaction of TNF with its receptor. The peptide was added directly to the cement paste to form the bone filler composition. Briefly, 100 μL of 1 mg/mL WP9QY was added into 0.5 mL DI water when mixing with 1 g of cement powder.
The cement pellet was washed with ethanol and left in a pre-osteoclast RAW 264.7 cell culture treated to trigger cell differentiation. To measure anti-osteoclast maturation of WP9QY released from the cement, the culture was stained for TRAP+ (osteoclast-like) cells after 5 days. TRAP+ cells are a marker for active osteoclasts after stimulated by the cytokine TNFalpha. The results, shown in FIG. 6, indicate that both composites can carry and release WP9QY.

In a further assay the test system is RAW 264.7 culture. Put plainly: Anti-osteoclastogenesis: cathespin K expression by real-time PCR. It counts as cell-based. The settings on record: MG132 released from cement; 5-day TNFalpha treatment. How it is done:
The anti-osteoclastogenesis of MG132-loaded cement was tested after a 5-day treatment of TNFalpha in RAW 264.7 culture. In this case, expression of the marker gene cathespin K was measured by real-time PCR.

Where a SMILES comes first, the peptide text is derived from it. Bridges are numbered along the chain shown (N, C = ends). The star is where a group is joined. Cbz = O=C(OCc1ccccc1)*

Turning to “H-Tyr-Cys-Trp-Ser-Gln-Tyr-Leu-Cys-Tyr-OH (H-YCWSQYLCY-OH; disulfide 2-8 (inferred)) [WP9QY]”, in assay [1], the “osteoclast activation (TRAP+ cells)” value was “osteoclast activation was inhibited”.
With `CC(C)C[C@@H](C=O)NC(=O)[C@H](CC(C)C)NC(=O)[C@H](CC(C)C)NC(=O)OCc1ccccc1` [MG132] (Cbz-Leu-Leu-Leu-aldehyde), the “osteoclast maturation (cathespin K expression)” value in the assay on RAW 264.7 culture is “osteoclast maturation can be inhibited”.

These data come from US20160030631A1, “Injectable Biodegradable Bone Matrix for Multiple Myeloma Lesion Augmentation and Osteoporosis” (THE UNIVERSITY OF TOLEDO, priority 2013, published 2016).
